Source: the supplement of paper PMC5908809

Assays:
[1] = tested on: normal primary NK cells, pool 1 (3 donors) (IL-2 2.5 ng/mL); experiment: percent inhibition of viability; higher = more inhibition; settings: 72 h
[2] = tested on: normal primary NK cells, pool 3 (3 donors) (IL-2 2.5 ng/mL); experiment: as above; settings: 72 h
[3] = tested on: normal primary NK cells, pool 1 (3 donors), resting (IL-2 0 ng/mL); experiment: as above; settings: 72 h
[4] = tested on: NKL (IL-2 2.5 ng/mL); experiment: as above; settings: 72 h
[5] = tested on: NK-YS (IL-2 2.5 ng/mL); experiment: as above; settings: 72 h
[6] = tested on: SNK-6 (IL-2 2.5 ng/mL); experiment: as above; settings: 72 h
[7] = tested on: IMC-1 (IL-2 20 ng/mL); experiment: as above; settings: 72 h
[8] = tested on: KAI3 (IL-2 2.5 ng/mL); experiment: as above; settings: 72 h
[9] = tested on: DERL-7 (IL-2 2.5 ng/mL); experiment: as above; settings: 72 h
[10] = tested on: KHYG-1 (IL-2 2.5 ng/mL); experiment: as above; settings: 72 h
[11] = tested on: NK-92 (IL-2 2.5 ng/mL); experiment: as above; settings: 72 h
[12] = tested on: normal primary NK cells, pool 2 (3 donors) (IL-2 2.5 ng/mL); experiment: as above; settings: 72 h
[13] = tested on: YT (IL-2 2.5 ng/mL); experiment: as above; settings: 72 h
[14] = tested on: normal NK cells expanded with K562-aAPC; experiment: as above; settings: 72 h, IL-2 2.5 ng/mL
Method: (§1)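 Drug sensitivity and resistance testing on K562-aAPC-expanded normal NK cells: 5 concentrations (10-fold steps over a 10,000-fold range), 72 h at 37 °C, viability by CellTiter-Glo normalised to DMSO and benzethonium chloride controls; DSS from the fitted curve.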

[15] = tested on: normal NK cells expanded with K562-aAPC; experiment: drug sensitivity score (DSS) (DSS units); higher = more sensitive; extreme values may be limits of the assay; settings: 72 h; IL-2 2.5 ng/mL
Method: as §1

[16] = tested on: normal primary NK cells, pool 1 (3 donors) (IL-2 2.5 ng/mL); experiment: as above; settings: 72 h
[17] = tested on: normal primary NK cells, pool 3 (3 donors) (IL-2 2.5 ng/mL); experiment: as above; settings: 72 h
[18] = tested on: normal primary NK cells, pool 1 (3 donors), resting (IL-2 0 ng/mL); experiment: as above; settings: 72 h
[19] = tested on: NKL (IL-2 2.5 ng/mL); experiment: as above; settings: 72 h
[20] = tested on: NK-YS (IL-2 2.5 ng/mL); experiment: as above; settings: 72 h
[21] = tested on: SNK-6 (IL-2 2.5 ng/mL); experiment: as above; settings: 72 h
[22] = tested on: IMC-1 (IL-2 20 ng/mL); experiment: as above; settings: 72 h
[23] = tested on: KAI3 (IL-2 2.5 ng/mL); experiment: as above; settings: 72 h
[24] = tested on: DERL-7 (IL-2 2.5 ng/mL); experiment: as above; settings: 72 h
[25] = tested on: KHYG-1 (IL-2 2.5 ng/mL); experiment: as above; settings: 72 h
[26] = tested on: NK-92 (IL-2 2.5 ng/mL); experiment: as above; settings: 72 h
[27] = tested on: normal primary NK cells, pool 2 (3 donors) (IL-2 2.5 ng/mL); experiment: as above; settings: 72 h
[28] = tested on: YT (IL-2 2.5 ng/mL); experiment: as above; settings: 72 h

O=C1c2c(O)ccc(O)c2C(=O)c2c(NCCNCCO)ccc(NCCNCCO)c21 [Mitoxantrone] (max concentration tested 1000 nM)
percent inhibition of viability [%]
Settings | 0.1 nM | 1 nM | 10 nM | 100 nM | 1000 nM
[1] | 1.11 | -8.14 | 0.77 | -0.51 | 58.9
[2] | -18.6 | -1.63 | -2.35 | -0.69 | 45.1
[3] | -14 | -28.2 | -16.5 | 24.1 | 91.4
[4] | -8.85 | 3.32 | 12 | 87 | 107
[5] | -6.35 | -2.16 | 9.79 | 37.1 | 85.1
[6] | 15 | 22.1 | 31.1 | 20.5 | 73.1
[7] | -4.49 | -5.12 | 2.6 | 19.3 | 92.1
[8] | -18.6 | -16.5 | -1.68 | 41.7 | 74.6
[9] | -0.69 | -3.99 | 7.25 | 45.4 | 81.1
[10] | -1.32 | 3.99 | 7.39 | 17.7 | 72.5
[11] | -10.5 | -26.1 | -3.86 | 11.4 | 45.4
[12] | -14.3 | -3.15 | 3.94 | 9.38 | 53.6
[13] | -1.6 | 4.64 | 3.75 | -0.47 | 32.4
[14] | 1.76 | 1.15 | 1.38 | 19 | 62

Settings | drug sensitivity score
[15] | 6.19
[16] | 3.14
[17] | 2.25
[18] | 8.71
[19] | 17.5
[20] | 8.97
[21] | 12.2
[22] | 8.2
[23] | 9.23
[24] | 10
[25] | 6.72
[26] | 4.12
[27] | 4.44
[28] | 1.43

Cc1cc(OCc2nnc(SC3CCCC3)n2-c2cccnc2)ccc1-c1ccc(S(C)(=O)=O)cc1 [NMS-873] (max concentration tested 10000 nM)
percent inhibition of viability [%]
Settings | 1 nM | 10 nM | 100 nM | 1000 nM | 10000 nM
[1] | 6.16 | -1.92 | 22 | 43.5 | 98.7
[2] | -2.38 | 0.99 | 24.8 | 27 | 99.8
[3] | -8.11 | -16.4 | 24.5 | 58.2 | 91.2
[4] | 11.2 | 14.7 | 26 | 52 | 106
[5] | 6.01 | 11.3 | 46.8 | 84.8 | 107
[6] | 0.98 | 31.4 | 15.3 | 33.6 | 101
[7] | 2.03 | 32.2 | 95.6 | 39.2 | 101
[8] | 3.12 | 7.92 | 11.3 | 35.3 | 105
[9] | 8.88 | 2.79 | 15.8 | 34.8 | 101
[10] | 3.36 | 6 | 38 | 65.7 | 107
[11] | -7.23 | -12.4 | 12.5 | 70.3 | 107
[12] | -5.68 | 4.07 | 30.6 | 39.7 | 97.8
[13] | -2.33 | 20.6 | 83.1 | 56.4 | 106
[14] | 0.72 | 5.79 | 5.95 | 24.3 | 101

Settings | drug sensitivity score
[15] | 9.28
[16] | 11.4
[17] | 8.69
[18] | 13.7
[19] | 14.6
[20] | 22.1
[21] | 9.51
[22] | 26.4
[23] | 10.4
[24] | 9.55
[25] | 17.9
[26] | 14.8
[27] | 12.2
[28] | 26.1

COc1ccc(-c2ccc3ncc4c(c3c2)n(-c2ccc(N3CCNCC3)c(C(F)(F)F)c2)c(=O)n4C)cn1 [NVP-BGT226] (max concentration tested 1000 nM)
percent inhibition of viability [%]
Settings | 0.1 nM | 1 nM | 10 nM | 100 nM | 1000 nM
[1] | -4.63 | -3.38 | 9.25 | 46.3 | 99
[2] | -7.84 | -7.37 | 7.07 | 21.4 | 98.8
[3] | 5.35 | -4.97 | 14.6 | 59.2 | 99
[4] | -10.6 | -18.4 | 35.3 | 51.1 | 93.4
[5] | -4.92 | -1.99 | 27.6 | 76.4 | 95.7
[6] | 8.89 | 4.85 | 13.6 | 64.3 | 98.2
[7] | -2.15 | -4.82 | -34.6 | 55.1 | 97.2
[8] | -0.77 | 1.29 | 25.3 | 57.2 | 94.7
[9] | -4.47 | 7.95 | 55.7 | 89 | 99.7
[10] | -2.44 | 1.07 | 4.41 | 76.8 | 95.9
[11] | -5 | -4.68 | 24.6 | 74.2 | 96.2
[12] | -6.87 | 0.35 | 13.2 | 39 | 99.7
[13] | -4.65 | -0.4 | 10.2 | 53.6 | 74.2
[14] | -0.83 | 1.88 | 18.5 | 46.3 | 99.4

Settings | drug sensitivity score
[15] | 11.6
[16] | 10.9
[17] | 8.86
[18] | 13.2
[19] | 13.7
[20] | 17.5
[21] | 14.1
[22] | 11.9
[23] | 14.1
[24] | 24
[25] | 14.8
[26] | 16.7
[27] | 9.95
[28] | 11.3

Cc1cn(-c2cc(NC(=O)c3ccc(C)c(Nc4nccc(-c5cccnc5)n4)c3)cc(C(F)(F)F)c2)cn1 [Nilotinib] (max concentration tested 10000 nM)
percent inhibition of viability [%]
Settings | 1 nM | 10 nM | 100 nM | 1000 nM | 10000 nM
[1] | 3.44 | -14 | -6.22 | -13.6 | -12.9
[2] | -13.2 | -5.87 | -1.78 | -9.25 | -1.3
[3] | 7.74 | -12.7 | -5.01 | -11.6 | -17.4
[4] | -17.5 | -6.91 | -4.77 | 29.9 | 50.9
[5] | -1.07 | -0.64 | 9.04 | 11.3 | 15.7
[6] | 11.9 | 22.4 | 9.61 | 18.6 | 37.7
[7] | -4.03 | -1.9 | 2.58 | 0.7 | -38.1
[8] | -3.54 | -7.12 | 4.99 | 7.48 | 20
[9] | -4.23 | 4.31 | -3.59 | -5.83 | -5.46
[10] | -0.89 | 0.67 | 11.9 | 5.38 | 17.9
[11] | 12.4 | 5.92 | 27.1 | 23.8 | 33.9
[12] | -15.7 | -12.8 | -10.3 | -4.04 | 1.26
[13] | 1.35 | 1.76 | 8.97 | 16.1 | 18.2
[14] | -1.85 | -4.37 | -3.71 | 7.45 | 26.5

Settings | drug sensitivity score
[15] | 2.11
[16] | 0
[17] | 0
[18] | 0
[19] | 6.35
[20] | 1.36
[21] | 6.76
[22] | 0
[23] | 0.95
[24] | 0
[25] | 0.72
[26] | 7.73
[27] | 0
[28] | 2.28

NC(=O)c1cccc2cn(-c3ccc([C@@H]4CCCNC4)cc3)nc12 [Niraparib] (max concentration tested 10000 nM)
percent inhibition of viability [%]
Settings | 1 nM | 10 nM | 100 nM | 1000 nM | 10000 nM
[1] | 6.04 | -0.22 | -4.85 | -8.51 | -4.48
[2] | -3.37 | -7.45 | 1.14 | -2 | 0.09
[3] | 1.46 | -12.9 | -7.56 | -30.2 | -19.6
[4] | -9.92 | 5.83 | 22.1 | 72.4 | 82.9
[5] | -10.5 | -0.47 | -4.5 | 25.4 | 94.5
[6] | -11.2 | -10.2 | 1.34 | 0.26 | 86.7
[7] | -4.38 | 1.54 | 3.53 | 17.8 | 95.6
[8] | -1.88 | 8.15 | 4.77 | 19.1 | 78.8
[9] | 0.54 | 3.15 | 0.76 | 8.32 | 68.3
[10] | -5.84 | 6.09 | -1.02 | 10.6 | 92.7
[11] | 4.26 | 12 | 8.71 | 15.1 | 92.8
[12] | -5.25 | -5.29 | 0.44 | -5.11 | 2.06
[13] | -0.31 | 5.58 | -0.5 | -2.07 | 34
[14] | 0.08 | 1.98 | 2.28 | 18.1 | 32.5

Settings | drug sensitivity score
[15] | 3.36
[16] | 0
[17] | 0
[18] | 0
[19] | 16
[20] | 9.06
[21] | 4.87
[22] | 8.2
[23] | 7.35
[24] | 5.15
[25] | 6.89
[26] | 7.65
[27] | 0
[28] | 1.42
